In US20070010402A1, “Novel herbicides, usage thereof, novel thienopyrimidine derivatives, intermediates of the same, and process for production thereof” (NIHON NOHYAKU CO., LTD.,, priority 2002, published 2007):

Assays:
[1] = tested on: Digitaria ciliaris; experiment: Field soil treatment test (Test Example 2); format: in vivo; conditions: soil spray after seeding, wettable powder, active ingredient 10 g/a, 21st day from the treatment
Procedure: (§1) The herbicidal effect was evaluated in terms of herbicidal rate obtained from the following equation: Herbicidal rate (%)=[1−(Weight of weeds above the ground in a treated plot)/(Weight of weeds above the ground in a non-treated plot)]×100 and was expressed by herbicidal index according to the following criteria. [table] Alluvial soil from a field was put in a resin-made vat having an area of 200 cm^2. After fertilization, the seeds of Digitaria ciliaris, Chenopodium album and Polygonum lapathifolium were cast on the soil and uniformly covered with the soil. The wettable powder obtained in Formulation Example 1 was diluted with water and a predetermined amount thereof was sprayed uniformly to the soil by means of a small-sized power pressure spray so as to give 10 g of the active ingredient per an are. Thereafter, cultivation was further continued in the greenhouse, and the herbicidal effect was examined on the 21st day from the treatment. The results obtained are shown in Table 8 (the compound numbers in Table 8 correspond to those in Tables 1 to 6).

[2] = tested on: Chenopodium album; experiment: Field soil treatment test (Test Example 2); format: in vivo; conditions: soil spray after seeding, wettable powder, active ingredient 10 g/a, 21st day from the treatment
Procedure: as §1

[3] = tested on: Polygonum lapathifolium; experiment: Field soil treatment test (Test Example 2); format: in vivo; conditions: soil spray after seeding, wettable powder, active ingredient 10 g/a, 21st day from the treatment
Procedure: as §1

[4] = tested on: Rotala indica; experiment: Submerged foliar treatment test (Test Example 3); format: in vivo; conditions: water depth 3 cm, cotyledon to 1-leaf stage, wettable powder, active ingredient 10 g/a, 28th day from the treatment
Procedure: (§2) The herbicidal effect was evaluated in terms of herbicidal rate obtained from the following equation: Herbicidal rate (%)=[1−(Weight of weeds above the ground in a treated plot)/(Weight of weeds above the ground in a non-treated plot)]×100
(§3) and was expressed by herbicidal index according to the following criteria.
(§4) Alluvial soil from a paddy field was put in a resin-made vat having an area of 200 cm^2. After fertilization, seeds of Echinochloa oryzicola, Rotala indica and Scirpus juncoides were cast on the soil and uniformly covered with the soil, and water was poured onto the soil to keep a water depth of 3 cm. Then, cultivation was continued in a greenhouse, and when the weeds to be tested reached the cotyledon stage to 1-leaf stage, the wettable powder obtained in Formulation Example 1 was diluted with water and a predetermined amount thereof was added dropwise uniformly to the weeds by means of a pipette to give 10 g of the active ingredient per an are. Thereafter, cultivation was further continued in the greenhouse, and the herbicidal effect was examined on the 28th day from the treatment. The results obtained are shown in Table 9 (the compound numbers in Table 9 correspond to those in Tables 1 to 6).

[5] = tested on: Echinochloa oryzicola; experiment: Submerged foliar treatment test (Test Example 3); format: in vivo; conditions: water depth 3 cm, cotyledon to 1-leaf stage, wettable powder, active ingredient 10 g/a, 28th day from the treatment
Procedure: as §2, §3, §4

[6] = tested on: Scirpus juncoides; experiment: Submerged foliar treatment test (Test Example 3); format: in vivo; conditions: water depth 3 cm, cotyledon to 1-leaf stage, wettable powder, active ingredient 10 g/a, 28th day from the treatment
Procedure: as §2, §3, §4

SMILES | melting point | Herbicidal effect Digitaria ciliaris (herbicidal index) [1] | Herbicidal effect Chenopodium album (herbicidal index) [2] | Herbicidal effect Polygonum lapathifolium (herbicidal index) [3] | other results
Cc1cc2c(-c3cccc(C(F)(F)F)c3)ncnc2s1 [Compound No. 6-9, 6-methyl-4-[3-(trifluoromethyl)phenyl]thieno[2,3-d]pyrimidine] | 70 to 72 °C | – | – | – | –
Cc1cc2c(-c3cccc(OC(F)F)c3)nc(OCC(F)(F)F)nc2s1 [6-121] | – | 5 (91 to 100) | 5 (91 to 100) | 5 (91 to 100) | –
Cc1cc2c(-c3cccc(OC(F)(F)F)c3)nc(OC(C)C)nc2s1 [6-36] | – | 5 (91 to 100) | 5 (91 to 100) | 5 (91 to 100) | –
CNc1nc(-c2ccc(C(F)(F)F)cc2)c2cc(C)sc2n1 [Compound No. 6-168, 6-methyl-2-(methylamino)-4-[4-(trifluoromethyl)phenyl]thieno[2,3-d]pyrimidine] | 233 °C | – | – | – | –
Cc1cc2nc(Cl)nc(-c3cccc(C(F)(F)F)c3)c2s1 [Compound No. 5-34, 2-chloro-6-methyl-4-[3-(trifluoromethyl)phenyl]thieno[3,2-d]pyrimidine] | 174 to 176 °C (dec.) | – | – | – | –
Cc1cc2c(-c3cccc(C(F)(F)F)c3)nc(OS(C)(=O)=O)nc2s1 [6-148] | – | 5 (91 to 100) | 5 (91 to 100) | 4 (71 to 90) | –
Cc1cc2c(-c3cccc(OC(F)(F)F)c3)nc(OC(C)C(F)(F)F)nc2s1 (stereo not shown) [6-110] | – | 5 (91 to 100) | 5 (91 to 100) | 5 (91 to 100) | –
Cc1cc2c(-c3cccc(C(F)(F)F)c3)nc(OCC(F)(F)C(F)(F)F)nc2s1 [6-101] | – | 5 (91 to 100) | 5 (91 to 100) | 4 (71 to 90) | –
Cc1cc2c(-c3cccc(C(F)(F)F)c3)nc(Cl)nc2s1 [Compound No. 5-4, 2-chloro-6-methyl-4-[3-(trifluoromethyl)phenyl]thieno[2,3-d]pyrimidine] | 108 °C | – | – | – | –
Cc1cc2c(-c3sc(C=O)cc3C)nc(Cl)nc2s1 [Compound No. 5-23, 2-chloro-4-(5-formyl-3-methylthiophen-2-yl)-6-methylthieno[2,3-d]pyrimidine] | 204 to 206 °C (dec.) | – | – | – | –
Cc1cc2c(-c3cccc(OC(F)(F)F)c3)nc(-n3ccc(C(F)(F)F)n3)nc2s1 [6-199] | – | 5 (91 to 100) | 5 (91 to 100) | 5 (91 to 100) | –
Cc1cc2c(-c3cccc(OC(F)(F)F)c3)nc(OCC(F)(F)C(F)(F)F)nc2s1 [6-111] | – | 5 (91 to 100) | 5 (91 to 100) | 5 (91 to 100) | –
Cc1cc2c(-c3cccc(OC(F)(F)F)c3)nc(OCCF)nc2s1 [6-107] | – | 5 (91 to 100) | 5 (91 to 100) | 5 (91 to 100) | –
Cc1cc2c(-c3sccc3C)nc(Cl)nc2s1 [Compound No. 5-22, 2-chloro-6-methyl-4-(3-methylthiophen-2-yl)thieno[2,3-d]pyrimidine] | 127 °C | – | – | – | –
Cc1cc2c(-c3cccc(OC(F)(F)F)c3)nc(OCC(F)(F)F)nc2s1 [6-108] | – | 5 (91 to 100) | 5 (91 to 100) | 5 (91 to 100) | –
CCOc1nc(-c2ccccc2C(F)(F)F)c2cc(C)sc2n1 [6-43] | – | 5 (91 to 100) | 5 (91 to 100) | 2 (31 to 50) | –
Cc1cc2c(-c3cccnc3Cl)nc(O)nc2s1 [Compound No. 4-22, 4-(2-chloropyridine-3-yl)-6-methylthieno[2,3-d]pyrimidine-2-ol] | > 300 °C | – | – | – | –
Cc1cc2c(-c3cccc(C(F)(F)F)c3)nc(C(=O)O)nc2s1 [Compound No. 6-180, 6-methyl-4-[3-(trifluoromethyl)phenyl]thieno[2,3-d]pyrimidine-2-carboxylic acid] | 226 to 227 °C (dec.) | – | – | – | –
Cc1cc2c(-c3cccc(OC(F)F)c3)nc(OCC(F)F)nc2s1 [6-122] | – | 5 (91 to 100) | 5 (91 to 100) | 5 (91 to 100) | –
Cc1cc2c(-c3cccc(C(F)(F)F)c3)nc(OC(C)(C)C)nc2s1 [6-27] | – | 5 (91 to 100) | 5 (91 to 100) | 4 (71 to 90) | –
Cc1cc2c(-c3cccc(C(F)(F)F)c3)nc(-n3ccc(C(F)(F)F)n3)nc2s1 [6-198] | – | 5 (91 to 100) | 5 (91 to 100) | 5 (91 to 100) | –
Cc1cc2c(-c3cccc(SC(F)(F)F)c3)nc(OCC(F)(F)C(F)F)nc2s1 [6-119] | – | 5 (91 to 100) | 5 (91 to 100) | 5 (91 to 100) | –
Cc1cc2c(-c3cccc(C(F)(F)F)c3)nc(OC(C)C(F)(F)F)nc2s1 (stereo not shown) [6-100] | – | 5 (91 to 100) | 5 (91 to 100) | 5 (91 to 100) | –
Cc1cc2c(-c3cccc(C(F)(F)F)c3)nc(O)nc2s1 [Compound No. 4-3, 6-methyl-4-[3-(trifluoromethyl)phenyl]thieno[2,3-d]pyrimidine-2-ol] | 251 to 253 °C (dec.) | – | – | – | –
C=CCOc1nc(-c2cccc(C(F)(F)F)c2)c2cc(C)sc2n1 [6-88] | – | 5 (91 to 100) | 5 (91 to 100) | 5 (91 to 100) | –
Cc1cc2c(-c3cccc(C(F)(F)F)c3)nc(OCC(F)(F)C(F)F)nc2s1 [6-103] | – | 5 (91 to 100) | 5 (91 to 100) | 5 (91 to 100) | –
Cc1cc2c(-c3ccc(F)c(C(F)(F)F)c3)nc(OC(C)C)nc2s1 [6-30] | – | 5 (91 to 100) | 5 (91 to 100) | 5 (91 to 100) | –
CSc1nc(-c2ccc(C(F)(F)F)cc2)c2cc(C)sc2n1 [Compound No. 6-171, 6-methyl-2-methylthio-4-[4-(trifluoromethyl)phenyl]thieno[2,3-d]pyrimidine] | 113 °C | – | – | – | –
CCCOc1nc(-c2cccc(OC)c2)c2cc(C)sc2n1 [6-62] | – | – | – | – | Herbicidal effect Rotala indica (herbicidal index) [4]: 5 (91 to 100); Herbicidal effect Echinochloa oryzicola (herbicidal index) [5]: 5 (91 to 100); Herbicidal effect Scirpus juncoides (herbicidal index) [6]: 5 (91 to 100)
Cc1cc2c(-c3cccc(C(F)(F)F)c3)nc(-n3cccc3)nc2s1 [6-189] | – | 5 (91 to 100) | 4 (71 to 90) | 3 (51 to 70) | –
